# Experiments:
# [1] = system: α2 adrenergic receptor (α2-ADR); assay: GiPCR signaling by cellular dielectric spectroscopy (CDS), oxymethazolin stimulation of osteoblasts; format: cell-based, mouse; conditions: osteoblasts from bipedal WT and PTPμ−/− mice, different concentrations (FIG. 3)
# Procedure: (§1) The signaling capacity of G proteins was assessed from osteoblast cultures using cellular dielectric spectroscopy (CDS) performed on a CellKey™ apparatus (MDS Sciex, San Francisco, Calif.), as described in Akoume, et al., 2010 and WO 2010/040234, 2010 to Moreau et al. To assess GiPCR cell signaling, specific agonists that bind to GiPCR and regulate Gi proteins were used: Apelin-17, Oxymethazolin and Somatostatin (Som) (Tocris Bioscience, Canada).
# To examine the impact of PTPμ deficiency on this defect, osteoblasts from bipedal WT and PTPμ^−/− mice were screened for their response to three GiPCR selective agonists identified in (FIG. 2). In agreement with previous results (Akoume et al Spine 2010), all three compounds evoked typical CDS response profiles of GiPCR in WT osteoblasts. Consistent with Gi coupling for their cognate receptors in these cells, response to each of the three tested compounds was blocked by pre-treatment with PTX (FIGS. 2 A-F). Similar results were obtained with PTPμ^−/− osteoblasts (FIGS. 2 G-L). […] However, in each case, osteoblasts from PTPμ^−/− mice were less responsive than those from WT mice, but EC50 values were similar in both groups (FIGS. 3 A-C).
# Apelin receptor (APJR) = target: T1, Apelin receptor (APJR) (Mus musculus, UniProt Q9WV08); assay: GiPCR signaling by cellular dielectric spectroscopy (CDS), apelin-17 stimulation of osteoblasts; format: cell-based; conditions: osteoblasts from bipedal WT and PTPμ−/− mice, different concentrations (FIG. 3)
# T1 construct: The signaling capacity of G proteins was assessed from osteoblast cultures using cellular dielectric spectroscopy (CDS); endogenous in cells; host or cells: primary spine osteoblasts from bipedal C57Bl/6j WT and PTPμ-/- mice
# T1 sequence (Q9WV08 1-377): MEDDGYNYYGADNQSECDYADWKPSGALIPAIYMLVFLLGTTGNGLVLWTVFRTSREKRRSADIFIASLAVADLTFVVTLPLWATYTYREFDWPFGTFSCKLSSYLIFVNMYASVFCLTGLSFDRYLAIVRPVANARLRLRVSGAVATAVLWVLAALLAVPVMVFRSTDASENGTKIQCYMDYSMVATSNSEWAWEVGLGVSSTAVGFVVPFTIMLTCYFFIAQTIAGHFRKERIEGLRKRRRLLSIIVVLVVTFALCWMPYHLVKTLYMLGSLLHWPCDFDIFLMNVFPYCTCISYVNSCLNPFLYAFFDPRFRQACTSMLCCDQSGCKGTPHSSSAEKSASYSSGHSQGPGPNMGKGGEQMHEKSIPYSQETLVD
# OPN = target: T2, OPN (Mus musculus, UniProt P10923); assay: OPN knockdown by siRNA in osteoblasts, response to GiPCR stimulation (CDS); format: cell-based; conditions: WT and PTPμ−/− osteoblasts (FIGS. 3 F-H)
# T2 construct: endogenous in cells; host or cells: primary spine osteoblasts from bipedal C57Bl/6j WT and PTPμ-/- mice, transfected with OPN siRNA
# T2 sequence (P10923 17-294): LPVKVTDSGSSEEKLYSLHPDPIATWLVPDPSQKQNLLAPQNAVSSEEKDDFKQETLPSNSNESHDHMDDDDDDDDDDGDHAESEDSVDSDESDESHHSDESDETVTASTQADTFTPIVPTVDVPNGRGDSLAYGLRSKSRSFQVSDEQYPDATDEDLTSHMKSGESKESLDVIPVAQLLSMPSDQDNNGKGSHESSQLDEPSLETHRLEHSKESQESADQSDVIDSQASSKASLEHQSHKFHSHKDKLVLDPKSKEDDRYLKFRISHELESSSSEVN
# Procedure: as §1
# (§2) Primary osteoblast cell cultures from C57BI/6j WT and C57B/6j PTPμ^−/− were cultured (as described above). Lipofectamine™ RNAiMAX (Invitrogen) was applied for siRNA transfection according to the manufacturer's instructions. The sequence of RNA oligo used for the knockdown of OPN is ([…] (SEQ ID NO: 25)). The cells were harvested for RNA extraction after 48 hrs. The same procedure was followed for phosphatidylinositol-phosphate kinase type I gamma (PIPK1γ). The sequence of RNA oligo used for the knockdown of PIPK1γ is ([…] (SEQ ID NO: 26)).
# To relate these findings to the OPN action, the small interference RNA (siRNA) approach was used to knockdown the expression of OPN in WT and PTPμ^−/− osteoblasts.
# G αi proteins = assay: Pertussis toxin pre-treatment of osteoblasts before GiPCR agonist stimulation (CDS); format: cell-based, mouse; conditions: osteoblasts from bipedal WT and PTPμ−/− mice; agonists oxymethazolin, somatostatin, apelin-17 (FIG. 2)
# From the text: Furthermore, Pertussis toxin (PTX) (Sigma Aldrich, Canada) was used to determine if the effect of the agonists was related to G αi proteins.
# GiPCR signaling = assay: Exogenous recombinant OPN treatment of osteoblasts prior to GiPCR stimulation (CDS); format: cell-based, mouse; conditions: WT and PTPμ−/− osteoblasts, varying concentrations of rOPN (FIGS. 4 A-C)
# Procedure: as §1
# WT and PTPμ^−/− osteoblasts were treated with varying concentrations of exogenous recombinant OPN (rOPN) prior to GiPCR stimulation with agonists identified in FIGS. 4 A-C.
# PIPK1γ = target: T3, PIPK1γ (Mus musculus, UniProt O70161); assay: PIPK1γ knockdown by siRNA in osteoblasts, response to somatostatin stimulation (CDS); format: cell-based; conditions: varying concentrations of somatostatin, vs scrb (FIG. 6H)
# T3 construct: endogenous in cells; host or cells: primary spine osteoblasts from bipedal C57Bl/6j WT and PTPμ-/- mice
# T3 sequence (O70161 whole entry): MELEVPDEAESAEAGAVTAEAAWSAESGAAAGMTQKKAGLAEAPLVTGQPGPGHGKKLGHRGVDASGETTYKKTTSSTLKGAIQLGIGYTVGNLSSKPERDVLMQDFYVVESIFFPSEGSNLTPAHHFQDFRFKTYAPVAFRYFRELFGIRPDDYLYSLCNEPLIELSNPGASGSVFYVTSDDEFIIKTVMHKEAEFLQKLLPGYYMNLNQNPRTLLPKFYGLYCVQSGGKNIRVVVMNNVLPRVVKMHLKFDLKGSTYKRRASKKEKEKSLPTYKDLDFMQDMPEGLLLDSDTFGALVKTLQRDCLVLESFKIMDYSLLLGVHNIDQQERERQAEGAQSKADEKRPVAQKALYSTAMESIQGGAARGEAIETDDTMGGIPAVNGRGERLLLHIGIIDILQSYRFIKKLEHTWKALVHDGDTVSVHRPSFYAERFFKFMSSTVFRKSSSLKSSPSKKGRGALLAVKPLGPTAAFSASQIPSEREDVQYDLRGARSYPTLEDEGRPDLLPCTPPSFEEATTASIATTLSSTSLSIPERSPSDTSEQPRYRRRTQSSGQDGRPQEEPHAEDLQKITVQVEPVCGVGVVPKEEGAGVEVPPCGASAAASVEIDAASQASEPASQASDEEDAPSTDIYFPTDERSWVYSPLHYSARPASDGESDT
# Procedure: as §1, §2
# To further assess the implication of PIPK1γ in the mechanism of action behind PTPμ deficiency, a SiRNA approach was used to knockdown the expression of PIPK1γ in WT and PTPμ^−/− osteoblasts prior to initiating GiPCR signaling with somatostatin stimulation. Efficiency of siRNA in WT and PTPμ^−/− osteoblasts was confirmed by qPCR and Western blot analysis (FIGS. 6 B and C). […]
compound,measurement,setting,value
"Cc1cc(C(C)(C)C)c(O)c(C)c1CC1=NCCN1 [oxymethazoin, Oxymethazolin]",CDS response to agonist,[1],increased response in a concentration-dependent manner
Apelin-17,CDS response to agonist,Apelin receptor (APJR),increased response in a concentration-dependent manner
"OPN siRNA: RNA oligo used for the knockdown of OPN: CCACAGCCACAAGCAGUCCAGAUUA (SEQ ID NO: 25) (CCACAGCCACAAGCAGUCCAGAUUA; listed as RNA, chemistry not given here)",response to GiPCR stimulation after deletion of OPN,OPN,enhanced response to GiPCR stimulation
Pertussis toxin [PTX],effect of pre-treatment on Gi coupling of agonists to their cognate receptors,G αi proteins,blocked the Gi coupling
rOPN: exogenous recombinant OPN (osteopontin),integrated response to GiPCR stimulation,GiPCR signaling,decrease in the integrated response in a concentration-dependent manner
"siPIPK1: RNA oligo used for the knockdown of PIPK1γ: CCUCCACAUCGGGAUUGAUAUU (SEQ ID NO: 26) (CCUCCACAUCGGGAUUGAUAUU; listed as RNA, chemistry not given here)",response to somatostatin stimulation after depletion of PIPK1γ,PIPK1γ; WT osteoblasts,same response
same,response to somatostatin stimulation after depletion of PIPK1γ,PIPK1γ; osteoblasts from PTPμ deficiency mice,enhanced response to somatostatin stimulation

# Source: patent US9989531B2, “Composition comprising a cell sample from a subject with scoliosis and a reagent for detecting PTPμ or PIPK1y” (Chu Sainte-Justine, priority 2013, dated 2018)
